The text below walks through data of paper PMC5218480 (PLoS ONE, 2017).

This assay relates to MV-4-11 cells. The experiment in a line: Gene expression microarray analysis (Affymetrix PrimeView) and GSEA. The assay is classed as cell-based, human. More on the design: RFU PODN (11730768_x_at) / Fold change /veh PODN (11730768_x_at) / RFU LINC00158 (11744669_a_at) / Fold change /veh LINC00158 (11744669_a_at) / RFU DUSP10 (11751237_a_at) / Fold change /veh DUSP10 (11751237_a_at) / RFU ID3 (11757404_x_at) / Fold change /veh ID3 (11757404_x_at) / RFU PLEKHG5 (11737974_s_at) / Fold change /veh PLEKHG5 (11737974_s_at) / RFU LRRC4B (11730491_at) / Fold change /veh LRRC4B (11730491_at) / RFU GIMAP4 (11747438_a_at) / Fold change /veh GIMAP4 (11747438_a_at) / RFU KRT8 (11758183_x_at) / Fold change /veh KRT8 (11758183_x_at) / RFU CNN1 (11734310_a_at) / Fold change /veh CNN1 (11734310_a_at) / RFU VPS37D (11726825_at) / Fold change /veh VPS37D (11726825_at) / RFU C10orf10 (11716522_x_at) / Fold change /veh C10orf10 (11716522_x_at) / RFU KIR2DL2 /// KIR2DL4 /// KIR2DL5A /// KIR2DL5B /// KIR2DS1 /// KIR2DS2 /// KIR2DS3 /// KIR2DS4 /// KIR3DL3 /// KIR3DL3 /// KIR3DS1 (11738374_at) / Fold change /veh KIR2DL2 /// KIR2DL4 /// KIR2DL5A /// KIR2DL5B /// KIR2DS1 /// KIR2DS2 /// KIR2DS3 /// KIR2DS4 /// KIR3DL3 /// KIR3DL3 /// KIR3DS1 (11738374_at) / RFU C1QL1 (11718748_at) / Fold change /veh C1QL1 (11718748_at) / RFU TMPRSS4 (11747572_a_at) / Fold change /veh TMPRSS4 (11747572_a_at) / RFU HAMP (11756126_x_at) / Fold change /veh HAMP (11756126_x_at) / RFU RNFT2 (11725882_a_at) / Fold change /veh RNFT2 (11725882_a_at) / RFU NR4A2 (11747474_a_at) / Fold change /veh NR4A2 (11747474_a_at) / RFU ABCC12 (11746883_a_at) / Fold change /veh ABCC12 (11746883_a_at) / RFU TMEM136 (11760407_x_at) / Fold change /veh TMEM136 (11760407_x_at) / RFU CLDN22 /// WWC2 (11732394_at) / Fold change /veh CLDN22 /// WWC2 (11732394_at) / RFU HLA-DPB1 (11760878_x_at) / Fold change /veh HLA-DPB1 (11760878_x_at) / RFU SPINT1 (11716480_a_at) / Fold change /veh SPINT1 (11716480_a_at) / RFU GAP43 (11754022_s_at) / Fold change /veh GAP43 (11754022_s_at) / RFU A4GNT (11735810_at) / Fold change /veh A4GNT (11735810_at) / RFU PRB3 (11715151_x_at) / Fold change /veh PRB3 (11715151_x_at) / RFU TUBB4B (11761932_at) / Fold change /veh TUBB4B (11761932_at) / RFU CAPN14 (11732068_a_at) / Fold change /veh CAPN14 (11732068_a_at) / RFU TMCC2 (11721928_a_at) / Fold change /veh TMCC2 (11721928_a_at) / RFU IRGQ (11745062_a_at) / Fold change /veh IRGQ (11745062_a_at) / RFU FAM174B (11720279_a_at) / Fold change /veh FAM174B (11720279_a_at) / RFU TMPRSS4 (11748680_a_at) / Fold change /veh TMPRSS4 (11748680_a_at) / RFU FAM212B (11763350_a_at) / Fold change /veh FAM212B (11763350_a_at) / RFU PLEKHG5 (11743358_a_at) / Fold change /veh PLEKHG5 (11743358_a_at) / RFU ZSCAN30 (11745921_a_at) / Fold change /veh ZSCAN30 (11745921_a_at) / RFU CMKLR1 (11741424_a_at) / Fold change /veh CMKLR1 (11741424_a_at) / RFU LOC101060620 /// MAPK8IP1 (11723275_at) / Fold change /veh LOC101060620 /// MAPK8IP1 (11723275_at) / RFU SPTSSB (11747773_x_at) / Fold change /veh SPTSSB (11747773_x_at) / RFU PRSS12 (11739890_at) / Fold change /veh PRSS12 (11739890_at) / RFU BIN1 (11741810_x_at) / Fold change /veh BIN1 (11741810_x_at) / RFU WNT11 (11732464_a_at) / Fold change /veh WNT11 (11732464_a_at) / RFU C10orf10 (11716521_a_at) / Fold change /veh C10orf10 (11716521_a_at) / RFU C5orf56 (11738089_at) / Fold change /veh C5orf56 (11738089_at) / RFU CYB561 (11721691_x_at) / Fold change /veh CYB561 (11721691_x_at) / RFU ANKRD19P (11752326_a_at) / Fold change /veh ANKRD19P (11752326_a_at) / RFU OR2T12 /// OR2T33 /// OR2T8 (11738714_s_at) / Fold change /veh OR2T12 /// OR2T33 /// OR2T8 (11738714_s_at) / RFU VCAN (11748164_a_at) / Fold change /veh VCAN (11748164_a_at) / RFU JSRP1 (11732532_at) / Fold change /veh JSRP1 (11732532_at) / RFU KRTAP10-11 (11738290_x_at) / Fold change /veh KRTAP10-11 (11738290_x_at) / RFU MYO3A (11730013_a_at) / Fold change /veh MYO3A (11730013_a_at) / RFU EBF3 (11725865_a_at) / Fold change /veh EBF3 (11725865_a_at) / RFU CAMK2N1 (11719241_x_at) / Fold change /veh CAMK2N1 (11719241_x_at) / RFU C5orf56 (11738088_a_at) / Fold change /veh C5orf56 (11738088_a_at) / RFU OLFML3 (11715873_a_at) / Fold change /veh OLFML3 (11715873_a_at) / RFU LOC100653217 /// NTM (11731650_a_at) / Fold change /veh LOC100653217 /// NTM (11731650_a_at) / RFU MAPK11 (11762145_a_at) / Fold change /veh MAPK11 (11762145_a_at) / RFU FIZ1 (11724087_x_at) / Fold change /veh FIZ1 (11724087_x_at) / RFU OASL (11726364_x_at) / Fold change /veh OASL (11726364_x_at) / RFU SOX15 (11748057_x_at) / Fold change /veh SOX15 (11748057_x_at) / RFU CD79A (11719716_a_at) / Fold change /veh CD79A (11719716_a_at) / RFU HIST1H1D (11736915_at) / Fold change /veh HIST1H1D (11736915_at) / RFU CASKIN2 (11723855_a_at) / Fold change /veh CASKIN2 (11723855_a_at) / RFU LOC730098 (11760151_x_at) / Fold change /veh LOC730098 (11760151_x_at) / RFU OR4N2 (11742367_at) / Fold change /veh OR4N2 (11742367_at) / RFU PRRT2 (11749266_a_at) / Fold change /veh PRRT2 (11749266_a_at) / RFU SNX32 (11753110_a_at) / Fold change /veh SNX32 (11753110_a_at) / RFU CDHR5 (11726645_a_at) / Fold change /veh CDHR5 (11726645_a_at) / RFU RCAN1 (11760418_a_at) / Fold change /veh RCAN1 (11760418_a_at) / RFU FAM167A (11723789_a_at) / Fold change /veh FAM167A (11723789_a_at) / RFU FAM26E (11764081_at) / Fold change /veh FAM26E (11764081_at) / RFU ISYNA1 (11749810_s_at) / Fold change /veh ISYNA1 (11749810_s_at) / RFU ACY1 (11761880_at) / Fold change /veh ACY1 (11761880_at) / RFU 11764098_at / Fold change /veh 11764098_at / RFU SAMD14 (11745864_x_at) / Fold change /veh SAMD14 (11745864_x_at) / RFU NPB (11741838_a_at) / Fold change /veh NPB (11741838_a_at) / RFU TMPRSS6 (11731388_a_at) / Fold change /veh TMPRSS6 (11731388_a_at) / RFU KRTAP10-2 (11738614_at) / Fold change /veh KRTAP10-2 (11738614_at) / RFU ARHGAP8 /// PRR5-ARHGAP8 (11727945_x_at) / Fold change /veh ARHGAP8 /// PRR5-ARHGAP8 (11727945_x_at) / RFU KRTAP5-7 /// NADSYN1 (11734609_at) / Fold change /veh KRTAP5-7 /// NADSYN1 (11734609_at) / RFU RASL12 (11751679_a_at) / Fold change /veh RASL12 (11751679_a_at) / RFU CDKN2B (11736163_a_at) / Fold change /veh CDKN2B (11736163_a_at) / RFU PRF1 (11729649_at) / Fold change /veh PRF1 (11729649_at) / RFU, ZNF638 /// ZNF638-IT1 / Fold change vs veh, ZNF638 /// ZNF638-IT1 / RFU, PANK3 / Fold change vs veh, PANK3 / RFU, SH3YL1 / Fold change vs veh, SH3YL1 / RFU, ZEB2 / Fold change vs veh, ZEB2 / RFU, NRIP1 / Fold change vs veh, NRIP1 / RFU, PTTG1IP / Fold change vs veh, PTTG1IP / RFU, CAPN2 / Fold change vs veh, CAPN2 / RFU, MED14 / Fold change vs veh, MED14 / RFU, SNORA58 / Fold change vs veh, SNORA58 / RFU, C1orf63 / Fold change vs veh, C1orf63 / RFU, LRRFIP1 / Fold change vs veh, LRRFIP1 / RFU, NDUFAF7 / Fold change vs veh, NDUFAF7 / RFU, SLC12A2 / Fold change vs veh, SLC12A2 / RFU, IBTK / Fold change vs veh, IBTK / RFU, ESF1 / Fold change vs veh, ESF1 / Fold change vs veh, TMEM50B / RFU, TAOK1 / Fold change vs veh, TAOK1 / RFU, ACBD3 / Fold change vs veh, ACBD3 / RFU, TMA16 / Fold change vs veh, TMA16 / RFU, RWDD3 / Fold change vs veh, RWDD3 / RFU, BCAT1 / Fold change vs veh, BCAT1 / RFU, EDEM3 / Fold change vs veh, EDEM3 / RFU, TMEM33 / Fold change vs veh, TMEM33 / RFU, WDR75 / Fold change vs veh, WDR75 / RFU, AHCTF1 / Fold change vs veh, AHCTF1 / RFU, TFRC / Fold change vs veh, TFRC / RFU, ZDHHC17 / Fold change vs veh, ZDHHC17 / RFU, NOM1 / Fold change vs veh, NOM1 / RFU, ARL8B / Fold change vs veh, ARL8B / RFU, ZBTB11 / Fold change vs veh, ZBTB11 / RFU, TAMM41 / Fold change vs veh, TAMM41 / RFU, KIAA1704 /// LOC100996395 / Fold change vs veh, KIAA1704 /// LOC100996395 / RFU, ING1 / Fold change vs veh, ING1 / RFU, TRMT61B / Fold change vs veh, TRMT61B / RFU, FUBP3 / Fold change vs veh, FUBP3 / RFU, TP53 / Fold change vs veh, TP53 / RFU, TNKS2 / Fold change vs veh, TNKS2 / RFU, ZFP14 / Fold change vs veh, ZFP14 / RFU, ACTR2 / Fold change vs veh, ACTR2 / RFU, PPP3R1 / Fold change vs veh, PPP3R1 / RFU, PIK3R1 / Fold change vs veh, PIK3R1 / RFU, HNRNPA1 / Fold change vs veh, HNRNPA1 / RFU, RNF170 / Fold change vs veh, RNF170 / RFU, ZNF28 / Fold change vs veh, ZNF28 / RFU, RNGTT / Fold change vs veh, RNGTT / RFU, OGT / Fold change vs veh, OGT / RFU, BRD1 / Fold change vs veh, BRD1 / RFU, MARS / Fold change vs veh, MARS / RFU, ZNF655 / Fold change vs veh, ZNF655 / RFU, FAHD1 / Fold change vs veh, FAHD1 / RFU, BDP1 / Fold change vs veh, BDP1 / RFU, LRRCC1 / Fold change vs veh, LRRCC1 / RFU, ARID1A / Fold change vs veh, ARID1A / RFU, ZNF146 / Fold change vs veh, ZNF146 / RFU, ZNF330 / Fold change vs veh, ZNF330 / RFU, GPN3 / Fold change vs veh, GPN3 / RFU, C9orf123 / Fold change vs veh, C9orf123 / RFU, N4BP2L2 / Fold change vs veh, N4BP2L2 / RFU, ARFIP1 / Fold change vs veh, ARFIP1 / RFU, FAM179B / Fold change vs veh, FAM179B / RFU, BCL10 / Fold change vs veh, BCL10 / RFU, UHRF1BP1L / Fold change vs veh, UHRF1BP1L / RFU, BET1 / Fold change vs veh, BET1 / RFU, CNOT2 / Fold change vs veh, CNOT2 / RFU, ZNF268 / Fold change vs veh, ZNF268 / Fold change vs veh, ZNF507 / RFU, DGCR2 / Fold change vs veh, DGCR2 / RFU, WDSUB1 / Fold change vs veh, WDSUB1 / Fold change vs veh, HSP90B1 /// MIR3652 / RFU, ADSS / Fold change vs veh, ADSS / RFU, GK / Fold change vs veh, GK / RFU, ZNF148 / Fold change vs veh, ZNF148 / RFU, TAF9 / Fold change vs veh, TAF9 / RFU, SLC1A5 / Fold change vs veh, SLC1A5 / RFU, SLMO2 / Fold change vs veh, SLMO2 / RFU, ABCC4 / Fold change vs veh, ABCC4 / RFU, LOC101060439 /// RAP1B / Fold change vs veh, LOC101060439 /// RAP1B / RFU, RFX7 / Fold change vs veh, RFX7 / RFU, GTPBP10 / Fold change vs veh, GTPBP10 / RFU, CNEP1R1 / Fold change vs veh, CNEP1R1 / RFU, BIVM-ERCC5 /// ERCC5 / Fold change vs veh, BIVM-ERCC5 /// ERCC5 / RFU, ILF3 / Fold change vs veh, ILF3 / RFU 11762660_at / Fold change /veh 11762660_at / RFU VCAN (11757783_s_at) / Fold change /veh VCAN (11757783_s_at) / RFU DDX43 (11728927_at) / Fold change /veh DDX43 (11728927_at) / RFU KRT8 (11758188_x_at) / Fold change /veh KRT8 (11758188_x_at) / RFU NKD1 (11759106_at) / Fold change /veh NKD1 (11759106_at) / RFU SRD5A1 (11742802_a_at) / Fold change /veh SRD5A1 (11742802_a_at) / RFU TPSAB1 /// TPSB2 (11721975_s_at) / Fold change /veh TPSAB1 /// TPSB2 (11721975_s_at) / RFU GSTM3 (11746129_a_at) / Fold change /veh GSTM3 (11746129_a_at) / RFU IL23R (11737362_x_at) / Fold change /veh IL23R (11737362_x_at) / RFU TMEM51 (11727254_a_at) / Fold change /veh TMEM51 (11727254_a_at) / RFU PIWIL2 (11732686_x_at) / Fold change /veh PIWIL2 (11732686_x_at) / RFU ORM1 (11744905_x_at) / Fold change /veh ORM1 (11744905_x_at) / RFU CCDC152 (11743942_at) / Fold change /veh CCDC152 (11743942_at) / RFU ECM1 (11717891_a_at) / Fold change /veh ECM1 (11717891_a_at) / RFU IL23R (11748794_a_at) / Fold change /veh IL23R (11748794_a_at) / RFU TNFAIP8L3 (11732012_x_at) / Fold change /veh TNFAIP8L3 (11732012_x_at) / RFU MBOAT4 (11741988_at) / Fold change /veh MBOAT4 (11741988_at) / RFU 11764193_at / Fold change /veh 11764193_at / RFU TMEM53 (11763286_at) / Fold change /veh TMEM53 (11763286_at) / RFU MAGEB2 (11727129_at) / Fold change /veh MAGEB2 (11727129_at) / RFU TMEM200A (11744735_a_at) / Fold change /veh TMEM200A (11744735_a_at) / RFU CCDC152 (11751479_a_at) / Fold change /veh CCDC152 (11751479_a_at) / RFU FAM211A (11726209_a_at) / Fold change /veh FAM211A (11726209_a_at) / RFU RGS16 (11746705_a_at) / Fold change /veh RGS16 (11746705_a_at) / RFU VCAN (11755009_s_at) / Fold change /veh VCAN (11755009_s_at) / RFU RHOB (11743442_s_at) / Fold change /veh RHOB (11743442_s_at) / RFU RGS16 (11720943_a_at) / Fold change /veh RGS16 (11720943_a_at) / RFU RGS16 (11720944_at) / Fold change /veh RGS16 (11720944_at) / RFU, VPS4B / Fold change vs veh, VPS4B / RFU, CREB1 / Fold change vs veh, CREB1 / RFU, DNAJC13 / Fold change vs veh, DNAJC13 / RFU, GNAQ / Fold change vs veh, GNAQ / RFU, CDK5R1 / Fold change vs veh, CDK5R1 / RFU, ZRANB3 / Fold change vs veh, ZRANB3 / RFU, CUL4A / Fold change vs veh, CUL4A / RFU, CCNY / Fold change vs veh, CCNY / RFU, UFL1 / Fold change vs veh, UFL1 / RFU, COG3 / Fold change vs veh, COG3 / RFU, DIAPH2 / Fold change vs veh, DIAPH2 / RFU, SKA2 / Fold change vs veh, SKA2 / RFU, AFF3 / Fold change vs veh, AFF3 / RFU, LMF1 / Fold change vs veh, LMF1 / RFU, IPO11 / Fold change vs veh, IPO11 / RFU, DFFB / Fold change vs veh, DFFB / RFU, FOXP1 / Fold change vs veh, FOXP1 / RFU, CARD8 / Fold change vs veh, CARD8 / RFU, STRN3 / Fold change vs veh, STRN3 / RFU, ADK / Fold change vs veh, ADK / RFU, RASSF2 / Fold change vs veh, RASSF2 / RFU, WIPF1 / Fold change vs veh, WIPF1 / RFU, LARP1B / Fold change vs veh, LARP1B / RFU, RASA1 / Fold change vs veh, RASA1 / RFU, RB1 / Fold change vs veh, RB1 / RFU, PPFIA1 / Fold change vs veh, PPFIA1 / RFU, MAT2A / Fold change vs veh, MAT2A / RFU, CCT5 / Fold change vs veh, CCT5 / RFU, WDR92 / Fold change vs veh, WDR92 / RFU, CUX1 / Fold change vs veh, CUX1 / RFU, TTC7A / Fold change vs veh, TTC7A / RFU, TMEM135 / Fold change vs veh, TMEM135 / RFU, DEPTOR / Fold change vs veh, DEPTOR / RFU, CPM / Fold change vs veh, CPM / RFU, DNAJB6 / Fold change vs veh, DNAJB6 / RFU, CACNA2D3 / Fold change vs veh, CACNA2D3 / RFU, DTX4 / Fold change vs veh, DTX4 / RFU, TFCP2 / Fold change vs veh, TFCP2 / RFU, GMCL1 /// GMCL1P1 / Fold change vs veh, GMCL1 /// GMCL1P1 / RFU, AEBP2 / Fold change vs veh, AEBP2 / RFU, SNHG1 /// SNORD22 /// SNORD25 /// SNORD26 /// SNORD27 /// SNORD28 /// SNORD29 /// SNORD31 / Fold change vs veh, SNHG1 /// SNORD22 /// SNORD25 /// SNORD26 /// SNORD27 /// SNORD28 /// SNORD29 /// SNORD31 / Fold change (Aza/veh), C12orf56 (ProbeSet 11735607_a_at) / Fold change (ACY-1035/veh), C12orf56 (ProbeSet 11735607_a_at) / Fold change (Aza/veh), FGFR1OP (ProbeSet 11751329_s_at) / Fold change (ACY-1035/veh), FGFR1OP (ProbeSet 11751329_s_at) / Fold change (Aza/veh), VPS36 (ProbeSet 11739960_a_at) / Fold change (ACY-1035/veh), VPS36 (ProbeSet 11739960_a_at) / RFU SYPL1 (11715823_x_at) / Fold change /veh SYPL1 (11715823_x_at) / RFU IGFBP7 (11715501_s_at) / Fold change /veh IGFBP7 (11715501_s_at) / RFU REEP3 (11722064_at) / Fold change /veh REEP3 (11722064_at) / RFU IGLL1 (11728026_x_at) / Fold change /veh IGLL1 (11728026_x_at): dose or concentration left out as unconfirmed. The note with it: MV-4-11 cells, 48 hours.

Take `Nc1ncn([C@@H]2O[C@H](CO)[C@@H](O)[C@H]2O)c(=O)n1` [azacitidine]: the “Fold change /veh FAM167A (11723789_a_at)” value is recorded as 1.19.
